According to patent publication EP3301096A1, “BIS-INDOLE DERIVATIVES FOR USE IN THE TREATMENT OF BACTERIAL INFECTIONS” (Heinrich Heine Universität Düsseldorf, priority 2016, dated 2018):

Assays:
M. tuberculosis H37Rv = assay: MIC determination, resazurin microplate assay; assay type: cell-based; details: Mycobacterium tuberculosis, 120 h, five days, range 100-0.78 µM
[1] = tested on: methicillin-resistant Staphylococcus aureus; assay: MIC quantified via the BacTiter-Glo assay; assay type: cell-based; details: methicillin-resistant strain; 24 h
Description: (§1) The MICs of compounds according to formulas (2), (3), (4), (7), (11), (12) and (18) were additionally quantified via the BacTiter-Glo™ assay (Promega, Madison, WI, USA). Briefly, after an incubation time of 24 h, each well was resuspended by pipetting, and 50 µL aliquots were transferred into an opaque-walled multiwell plate. Additionally, control wells containing medium without cells to determine background luminescence were prepared. 50 µL BacTiter-Glo™ reagent were added to each well. Contents were mixed and incubated for five minutes at room temperature. Luminescence was measured using a microplate reader. Growth was calculated relative to the background luminescence (0% growth) and a compound-free DMSO control (100% growth).

[2] = tested on: methicillin-sensitive Staphylococcus aureus; assay: MIC quantified via the BacTiter-Glo assay; assay type: cell-based; details: methicillin-sensitive strain; 24 h
Description: as §1

[3] = tested on: human fetal lung fibroblast cell line MRC-5; assay: Cytotoxicity, resazurin assay; assay type: cell-based; details: MRC-5 cells, 48 h
Description: (§2) The cytotoxicity of the compounds according to formulas (2), (3) and (4) and according to formulas (7), (11), (12) and (18) was determined in vitro using the human monocyte cell line THP-1 (Deutsche Sammlung von Mikroorganismen und Zellkulturen GmbH) and the human fetal lung fibroblast cell line MRC-5 (American Type Culture Collection).
(§3) THP-1 cells were cultured in RPMI 1640 medium containing 10% (v/v) fetal bovine serum (FBS), while MRC-5 cells were incubated in Dulbecco's Modified Eagles Medium (DMEM) containing 10% (v/v) FBS both at 37°C in a humidified atmosphere of 5% CO2. […] Cells treated with DMSO in a final concentration of 1% (v/v) served as DMSO toxicity controls. After an incubation time of 48 h, 10 µL resazurin solution (100 µg/mL) were added per well and incubated for further 3 h at 37°C in a humidified atmosphere of 5% CO2. Fluorescence was quantified using a microplate reader (excitation 540 nm, emission 590 nm). Growth was calculated relative to non-inoculated (i.e. cell-free) (0% growth) and untreated (100% growth) controls in triplicate experiments, respectively. For determination of the therapeutic index of the tested substances, the selectivity index (SI) was determined by the quotient of cytotoxic concentration and MIC. Compounds with SI ≥ 10 were characterized in further experiments.

[4] = tested on: human monocyte cell line THP-1; assay: Cytotoxicity, resazurin assay; assay type: cell-based; details: THP-1 cells, 48 h
Description: as §2, §3

[5] = tested on: Staphylococcus aureus MRSA strain ATCC 700699; assay: Time-kill curves in vitro (killing kinetics); assay type: cell-based
[6] = tested on: Methicillin resistant S. aureus (MRSA; ATCC 700699); assay: Resistance development during time-kill kinetics; assay type: cell-based, Staphylococcus aureus; details: after 6 and 24 h of incubation, plated on agar with 5x MIC
Description: Additionally, the resistance rate of the cultures was determined after 6 and 24 h of incubation. For this, 20 µL of the cultures were plated on 1 mL MH agar containing the five-fold MIC of the compounds (for the compound according to formula (2) and (4): 2 µM, for the compound according to formula (3): 8 µM). After an incubation time of 24 h at 37°C, the colonies were counted. The resistance rate was determined as quotient of the number of resistant colonies on compound containing agar and the total amount of viable bacteria at the corresponding time points.
Two independent cultures C1 and C2 were tested for each attempt. Compounds were tested at 5x MIC resulting in 0.02-0.08% DMSO final concentration. In an independent experiment, medium was replaced and compounds were freshly added after 6 h, denoted "freshly added" in the Figure. 20 µL of different dilution of the cultures after either 6 or 24 h of incubation were plated out on MH agar containing either no antibiotics, which is denoted (*) or the compounds of formulas (2) and (3) at 5x MIC, respectively.

S. aureus ATCC 25923 = assay: MIC by broth microdilution method (CLSI); details: Staphylococcus aureus, ATCC25923, 24 h
Description: (§4) The compounds were tested for their antibacterial activities against the pathogenic nosocomial strains of Staphylococcus aureus, Enterococcus faecalis Enterococcus faecium, Acinetobacter baumannii. The minimal inhibitory concentration (MIC) was determined by the broth microdilution method according to the recommendations of the Clinical and Laboratory Standards Institute (CLSI) (CLSI M7-A9, 2012). For preparation of the inoculum the growth method was used. Bacterial cells were grown aerobically in Muller Hinton (MH) medium at 37°C and 180 rpm. A preculture was grown until log phase (OD600 nm ∼ 0.5) and then seeded at 5 x 10^4 bacteria/well in a total volume of 100 µL in 96 well round bottom microtiter plates and incubated with serially diluted test substances at a concentration range of 100-0.78 µM. The compounds were screened in two-fold serial dilution. Microplates were incubated aerobically at 37°C for 24 h. MICs were determined by identifying the minimum concentration of the compounds that led to complete inhibition of visual growth of the bacteria.

MRSA ATCC 700699 = assay: MIC by broth microdilution method (CLSI); details: Staphylococcus aureus, 24 h
Description: as §4

E. faecalis ATCC 29212 = assay: MIC by broth microdilution method (CLSI); details: Enterococcus faecalis, ATCC29212, 24 h
Description: as §4

E. faecalis ATCC 51299 = assay: MIC by broth microdilution method (CLSI); details: Enterococcus faecalis, ATCC51299, 24 h
Description: as §4

E. faecium ATCC 35667 = assay: MIC by broth microdilution method (CLSI); details: Enterococcus faecium, ATCC35667, 24 h
Description: as §4

[7] = tested on: VR E. faecium ATCC 700221; assay: MIC by broth microdilution method (CLSI); details: Enterococcus faecium, ATCC700221, 24 h
Description: as §4

[8] = tested on: nosocomial pathogens and Mycobacterium tuberculosis; assay: MIC determination, statements across the tested strains; assay type: cell-based; details: for activity against the tested strains: tested concentration range 100-0.78 µM

SMILES	MIC (M. tuberculosis H37Rv)	inhibition of Staphylococcus aureus (BacTiter-Glo) [1]	inhibition of Staphylococcus aureus (BacTiter-Glo) [2]	cytotoxic (inhibitory) concentration [3]	cytotoxic (inhibitory) concentration [4]	bacteria amount ([5]; after 6 h at five-fold MIC, inoculum 10^6 CFU/mL)	killing effect ([5]; five-fold MIC)	level of resistance in treated cultures [6]	MIC (S. aureus ATCC 25923)	MIC (MRSA ATCC 700699)	MIC (E. faecalis ATCC 29212)	MIC (E. faecalis ATCC 51299)	MIC (E. faecium ATCC 35667)	MIC [7]	activity against the tested strains [8]	effect against M. tuberculosis, S. aureus and E.faecium [8]
Brc1ccc2[nH]cc(-c3cnc(-c4c[nH]c5ccc(Br)cc45)cn3)c2c1 [formula (3), 2,5-bis(5-bromo-1H-indole-3-yl)pyrazine]	> 100 µM	effectively inhibited	effectively inhibited	12.5 µM	12.5 µM	10^2 CFU/mL	strong bactericidal killing effect	no significant level of resistance was detectable	1.56 µM	1.56 µM	> 100 µM	> 100 µM	> 100 µM	> 100 µM		
Fc1ccc2[nH]cc(-c3cnc(-c4c[nH]c5ccc(F)cc45)cn3)c2c1 [formula (5), 2,5-bis(5-fluoro-1H-indole-3-yl)pyrazine]	> 100 µM								> 100 µM	> 100 µM	> 100 µM	> 100 µM	> 100 µM	> 100 µM	no activity	
Brc1ccc2c(-c3cnc(-c4c[nH]c5cc(Br)ccc45)cn3)c[nH]c2c1 [formula (6), 2,5-bis(6-bromo-1H-indole-3-yl)pyrazine]	> 100 µM								> 100 µM	> 100 µM	> 100 µM	> 100 µM	> 100 µM	> 100 µM	no activity could be observed	
Brc1cc2[nH]cc(-c3cnc(-c4c[nH]c5cc(Br)c(Br)cc45)cn3)c2cc1Br [formula (7), 2,5-bis(5,6-dibromo-1H-indole-3-yl)pyrazine]	> 100 µM								100 µM	25 µM	100 µM	> 100 µM	50 µM	50 µM		
COc1ccc2[nH]cc(-c3cnc(-c4c[nH]c5ccc(OC)cc45)cn3)c2c1 [formula (8), 2,5-bis(5-methoxy-1H-indole-3-yl)pyrazine]	> 100 µM								> 100 µM	> 100 µM	> 100 µM	> 100 µM	> 100 µM	> 100 µM		did not show any effect
COc1ccc2c(-c3cnc(-c4c[nH]c5cc(OC)ccc45)cn3)c[nH]c2c1 [formula (9), 2,5-bis(6-methoxy-1H-indole-3-yl)pyrazine]	> 100 µM								> 100 µM	> 100 µM	> 100 µM	> 100 µM	> 100 µM	> 100 µM		did not show any effect
c1ccc2c(-c3cnc(-c4c[nH]c5ccccc45)cn3)c[nH]c2c1 [formula (10), 2,5-bis(1H-indole-3-yl)pyrazine]	> 100 µM								> 100 µM	> 100 µM	12.5 µM	25 µM	> 100 µM	> 100 µM		did not show any effect
Fc1ccc2[nH]cc(-c3cnc(-c4c[nH]c5ccc(F)cc45)nc3)c2c1 [formula (11), 3,3'-(pyrimidine-2,5-diyl)bis(5-fluoro-1H-indole)]	> 100 µM								100 µM	12.5 µM	100 µM	100 µM	50 µM	50 µM		
c1ccc2c(-c3cnc(-c4c[nH]c5ccccc45)nc3)c[nH]c2c1 [formula (12), 3,3'-(pyrimidine-2,5-diyl)bis(1H-indole)]	50 µM								100 µM	12.5 µM	50 µM	100 µM	100 µM	100 µM		
c1cnc2[nH]cc(-c3cnc(-c4c[nH]c5ncccc45)nc3)c2c1 [formula (13), 3,3'-(pyrimidine-2,5-diyl)bis(1H-pyrrolo[2,3-b]pyridine)]	> 100 µM								> 100 µM	> 100 µM	100 µM	> 100 µM	> 100 µM	> 100 µM		
COc1ccc2[nH]cc(-c3cnc(-c4c[nH]c5ccc(OC)cc45)nc3)c2c1 [formula (14), 3,3'-(pyrimidine-2,5-diyl)bis(5-methoxy-1H-indole)]	50 µM								> 100 µM	50 µM	50 µM	100 µM	100 µM	50 µM		
c1ccc2c(-c3cc(-c4c[nH]c5ccccc45)ncn3)c[nH]c2c1 [formula (15), 4,6-di(1H-indole-3-yl)pyrimidine]	> 100 µM								> 100 µM	> 100 µM	> 100 µM	> 100 µM	> 100 µM	> 100 µM		
c1cc(-c2c[nH]c3ccccc23)nc(-c2c[nH]c3ccccc23)c1 [formula (16), 2,6-di(1H-indole-3-yl)pyridine]	> 100 µM								> 100 µM	> 100 µM	100 µM	100 µM	> 100 µM	> 100 µM		
c1ccc2c(-c3ccc(-c4c[nH]c5ccccc45)nn3)c[nH]c2c1 [formula (17), 3,6-Di(1H-indole-3-yl)pyridazine]	> 100 µM								> 100 µM	> 100 µM	100 µM	100 µM	> 100 µM	> 100 µM		
c1ccc2c(-c3csc(-c4c[nH]c5ccccc45)n3)c[nH]c2c1 [formula (18), 2,4-di(1H-indole-3-yl)thiazole]	100 µM	effectively inhibited	effectively inhibited						6.25 µM	3.12 µM	> 100 µM	> 100 µM	6.25 µM	6.25 µM		
